The text below walks through data of PubChem BioAssay (NCI).

Some test systems named below: HL-60(TB) leukemia; ACHN renal; RPMI-8226 leukemia; HOP-62 NSCLC; NCI-H23 lung; UACC-257 melanoma; SK-MEL-5 melanoma; NCI-H522 lung; SF-539 CNS.
Holding throughout (test): NCI anticancer screen, dose series, 48 h

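Growth conditions: 96-well plates. Treatment: test compound, 48 hours, 5 concentrations. Analysis: linear interpolation between bracketing concentrations; unreached endpoints set to highest concentration. GI50 = concentration required for 50% inhibition of growth. At the TGI there is no net growth.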

As for `O=C(Nc1cc(Cl)ccc1Cl)c1cc2ccccc2oc1=O`, the TGI in the assay on HL-60(TB) leukemia, in the assay on ACHN renal, in the assay with RPMI-8226 leukemia, with HOP-62 NSCLC, in the assay with NCI-H23 lung and in the assay with UACC-257 melanoma was greater than 100 µM in each case. The TGI with SK-MEL-5 melanoma, in the assay with NCI-H522 lung and in the assay with SF-539 CNS was greater than 100 µM in each case.
In the case of `CCc1cccc(CC)c1NC1=CC(=O)C(=O)c2ccccc21`, the TGI in the assay with HL-60(TB) leukemia is greater than 100 µM; with ACHN renal, 26 µM; in the assay on RPMI-8226 leukemia, greater than 100 µM; in the assay with HOP-62 NSCLC, 40.3 µM; in the assay with NCI-H23 lung, 3.02 µM; with UACC-257 melanoma it was 28.6 µM. Moreover, the TGI in the assay on SK-MEL-5 melanoma is 21.6 µM; in the assay on NCI-H522 lung it was 28.3 µM; in the assay on SF-539 CNS, 35.4 µM.
Turning to `CCCCCCCCCCCCCCCCCCCCCCC(=O)N[C@H]1CCc2cc(OC)c(OC)c(OC)c2-c2ccc(SC)c(=O)cc21`, the TGI in the assay on HL-60(TB) leukemia was 48.9 µM; with ACHN renal, greater than 100 µM; with HOP-62 NSCLC it was greater than 100 µM; in the assay with NCI-H23 lung, 62.2 µM; in the assay on UACC-257 melanoma, greater than 100 µM; in the assay on SK-MEL-5 melanoma it was greater than 100 µM. For the same molecule, the results for the TGI with NCI-H522 lung and with SF-539 CNS were 33.1 µM and 41.3 µM, respectively.
As to `C=CC(C)(C)[C@@]12CC3C(=O)N[C@@H](Cc4ccccc4)C(=O)N3[C@@H]1N(C(C)=O)c1ccccc12` (some centres undefined), the TGI in the assay with HL-60(TB) leukemia was 62.1 µM; in the assay on ACHN renal, greater than 100 µM; in the assay on RPMI-8226 leukemia, greater than 100 µM; in the assay on HOP-62 NSCLC, greater than 100 µM; in the assay with NCI-H23 lung it was greater than 100 µM; in the assay with UACC-257 melanoma, greater than 100 µM. Moreover, the TGI in the assay with SK-MEL-5 melanoma and with SF-539 CNS was greater than 100 µM throughout.
Regarding `CC(=O)NNc1nc(C)c(C(=O)NNC(=O)C(=O)Nc2ccc(C)cc2[N+](=O)[O-])s1`, the TGI with HL-60(TB) leukemia, in the assay on ACHN renal, in the assay with RPMI-8226 leukemia, with HOP-62 NSCLC, with NCI-H23 lung and in the assay on UACC-257 melanoma was greater than 100 µM throughout. Also, the TGI with SK-MEL-5 melanoma was greater than 100 µM; with NCI-H522 lung it was 78 µM; in the assay on SF-539 CNS it was greater than 100 µM.
With `CC(=O)Nc1ccc(/C=C/C(=O)c2sc(-n3nc(-c4ccccc4)cc3-c3ccccc3)nc2C)cc1`, the GI50 in the assay with HL-60(TB) leukemia, with ACHN renal, in the assay on RPMI-8226 leukemia, in the assay on HOP-62 NSCLC, in the assay with NCI-H23 lung and with SF-539 CNS was greater than 100 µM each time. For the same molecule, the TGI in the assay with HL-60(TB) leukemia, with ACHN renal, with RPMI-8226 leukemia, in the assay with HOP-62 NSCLC, in the assay on NCI-H23 lung and in the assay with UACC-257 melanoma was greater than 100 µM in each case. The TGI in the assay on SK-MEL-5 melanoma, with NCI-H522 lung and with SF-539 CNS was greater than 100 µM each time.
In the case of `N#Cc1cccc(C2SCc3nc4ccccc4n32)c1` (centres undefined), the TGI in the assay with HL-60(TB) leukemia is greater than 100 µM; in the assay with ACHN renal, greater than 100 µM; with HOP-62 NSCLC, greater than 100 µM; in the assay on NCI-H23 lung it was greater than 100 µM; with UACC-257 melanoma, greater than 100 µM; with SK-MEL-5 melanoma, 65.2 µM. For the same molecule, the TGI in the assay on NCI-H522 lung and in the assay on SF-539 CNS was greater than 100 µM in each case.
On to `O=C(CC1(O)C(=O)Nc2ccc(Br)cc21)c1cccc([N+](=O)[O-])c1` (centres undefined), for which the TGI with HL-60(TB) leukemia was 67.3 µM; in the assay on ACHN renal, greater than 100 µM; in the assay on RPMI-8226 leukemia it was 57.9 µM; in the assay on HOP-62 NSCLC, greater than 100 µM; with NCI-H23 lung, greater than 100 µM; in the assay on UACC-257 melanoma, 78.6 µM. In the assay with NCI-H522 lung, this molecule came in with a TGI of 67.2 µM.
In the case of `N=C(N)c1ccc(-c2ccc(-c3cccs3)s2)cc1F`, the GI50 is 1.79 µM with HL-60(TB) leukemia; 1.45 µM in the assay with ACHN renal; 0.288 µM with RPMI-8226 leukemia; 1.61 µM in the assay with HOP-62 NSCLC; 1.63 µM in the assay with NCI-H23 lung; 1.77 µM in the assay on UACC-257 melanoma. The GI50 in the assay on SK-MEL-5 melanoma is 1.27 µM; with NCI-H522 lung it was 1.94 µM; in the assay on SF-539 CNS, 1.35 µM. The TGI worked out at 3.83 µM in the assay on HL-60(TB) leukemia; 2.93 µM in the assay with ACHN renal; 0.951 µM in the assay with RPMI-8226 leukemia; 3.07 µM with HOP-62 NSCLC; 3.27 µM in the assay on NCI-H23 lung; 3.43 µM in the assay on UACC-257 melanoma. Moreover, the figures for the TGI in the assay with SK-MEL-5 melanoma, with NCI-H522 lung and in the assay on SF-539 CNS were 2.69 µM, 3.88 µM and 3.38 µM, respectively.
On to `COC(=O)N1C=Cc2c(c(C)c3c([nH]c4ccccc43)c2C)C1C` (centres undefined), for which the TGI with HL-60(TB) leukemia is 52 µM; in the assay with RPMI-8226 leukemia it was 38.2 µM; in the assay with HOP-62 NSCLC it was 34.5 µM; with NCI-H23 lung it was 36.2 µM; in the assay on UACC-257 melanoma, 35 µM; in the assay on SK-MEL-5 melanoma, 31.1 µM. Moreover, the TGI in the assay on SF-539 CNS came to 35.3 µM.
Consider `Cc1nc2ccccc2c(=O)n1/N=C(\N=Nc1ccc(Cl)cc1)c1ccc(N(C)C)cc1`, for which the TGI in the assay with ACHN renal, in the assay on HOP-62 NSCLC, with NCI-H23 lung, with SK-MEL-5 melanoma, in the assay with NCI-H522 lung and in the assay with SF-539 CNS was greater than 100 µM each time.
Turning to `O=c1ccn([C@@H]2C[C@H](CO)CS(=O)C2)c(=O)[nH]1` (some centres undefined), the TGI in the assay with HL-60(TB) leukemia, with ACHN renal, in the assay with RPMI-8226 leukemia, with HOP-62 NSCLC, in the assay on NCI-H23 lung and in the assay on UACC-257 melanoma was greater than 100 µM in each case. In addition, the TGI in the assay with SK-MEL-5 melanoma, with NCI-H522 lung and in the assay with SF-539 CNS was greater than 100 µM each time.
As to `BrC(/C=N/Nc1nnc(-c2ccccc2)c(-c2ccccc2)n1)C(Br)c1ccccc1` (centres undefined), the TGI is 79.5 µM in the assay with HL-60(TB) leukemia; greater than 100 µM in the assay with ACHN renal; 70.7 µM in the assay on RPMI-8226 leukemia; 92.2 µM in the assay with HOP-62 NSCLC; greater than 100 µM in the assay on NCI-H23 lung; greater than 100 µM in the assay on UACC-257 melanoma. For the same molecule, the values for the TGI in the assay with SK-MEL-5 melanoma, with NCI-H522 lung and in the assay on SF-539 CNS were 57.9 µM, 54.1 µM and greater than 100 µM, respectively.
As to `O=P(c1ccccc1)(c1ccccc1)C1CC=C2CCCCCC2C1` (centres undefined), the TGI in the assay with HL-60(TB) leukemia is 58.9 µM; in the assay on RPMI-8226 leukemia it was 42.7 µM; with NCI-H23 lung, greater than 100 µM; in the assay on UACC-257 melanoma, 68.5 µM; in the assay with SK-MEL-5 melanoma, 46.1 µM; with NCI-H522 lung it was 41 µM. The same molecule registered a TGI in the assay with SF-539 CNS greater than 10 µM.
